# Test results from US4920106A, “Acetylenic cyclic carbonates” (Merck & Co., Inc., priority 1989, dated 1990).
# Key:
# Candida albicans MY 1055 = experiment: Antifungal Assay (minimum inhibitory concentration, Candida albicans MY 1055); assay type: cell-based; details: Yeast Nitrogen Base/0.5% glucose; inoculum 3-5×10^-4 CFU/ml; 37° C., 18 hours; lowest concentration that inhibits visible growth
# Protocol: Antifungal activity was determined against Candida albicans MY 1055, a yeast strain maintained by Merck and Co., Rahway, New Jersey. Minimum inhibitory concentrations were determined using a starting inoculum of 3-5×10^-4 CFU/ml. The medium was Yeast Nitrogen Base/0.5% glucose. Test compounds were dissolved in a minimum amount of 50% aqueous ethanol and diluted to final concentrations with yeast medium. Samples were incubated at 37° C. for 18 hours. The minimum inhibitory concentration (MIC), reported in μg/ml, is the lowest concentration of test compound that inhibits visible growth.
# [1] = target: T1, Acetoacetyl-coenzyme A thiolase (Rattus norvegicus, UniProt Q5XI22); experiment: Acetoacetyl-Coenzyme A Thiolase Inhibition; assay type: biochemical, Sprague Dawley rats; details: Table II; text: IC50, concentration that inhibits 50% of thiolase activity; enzyme from livers of lovastatin-treated rats; pH 7.5, room temperature, 340 nm NADH oxidation; read-out: MIC
# T1 construct: prepared from the livers of Sprague Dawley rats treated in the diet for one week with 0.075% lovastatin to induce the enzyme; from tissue; host or cells: liver of lovastatin-fed Sprague Dawley rats
# T1 sequence (Q5XI22 whole entry): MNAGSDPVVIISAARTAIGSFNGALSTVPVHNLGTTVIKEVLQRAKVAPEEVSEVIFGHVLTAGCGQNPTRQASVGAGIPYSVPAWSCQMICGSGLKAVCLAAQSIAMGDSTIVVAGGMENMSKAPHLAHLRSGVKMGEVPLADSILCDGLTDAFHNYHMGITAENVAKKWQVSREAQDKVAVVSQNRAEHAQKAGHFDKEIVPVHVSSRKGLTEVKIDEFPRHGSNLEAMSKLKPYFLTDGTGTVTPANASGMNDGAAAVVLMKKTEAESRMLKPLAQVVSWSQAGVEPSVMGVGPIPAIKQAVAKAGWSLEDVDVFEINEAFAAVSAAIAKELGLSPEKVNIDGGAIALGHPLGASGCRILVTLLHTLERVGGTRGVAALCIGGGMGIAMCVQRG
# Protocol: Acetoacetyl-coenzyme A thiolase was prepared from the livers of Sprague Dawley rats treated in the diet for one week with 0.075% lovastatin to induce the enzyme. Acetoacetyl-coenzyme A thiolase was purified through the DEAE-cellulose step essentially as described by Mehrabian et al., J. Biol. Chem., 261, 16249-16255 (1986), but modified slightly by carrying out the 30-50% ammonium sulfate precipitation of the enzyme and a dialysis before the DEAE-cellulose step. The 0.06M eluate described by Mehrabian et al. contained the acetoacetyl-coenzyme A thiolase. The isolate was concentrated by ammonium sulfate precipitation, dissolved in the buffer used for elution, and stored at -70° C.
# Inhibition of acetoacetyl-coenzyme A thiolase was measured by coupling the formation of acetoacetyl-coenzyme A to its subsequent reduction by β-hydroxybutyryl-coenzyme A dehydrogenase to β-hydroxybutyryl-coenzyme A and monitoring the resultant oxidation of NADH with a spectrophotometer set at 340 nm. […] Reaction was measured at room temperature for a time period necessary to produce a measurable reaction rate. […]
# cytosolic β-ketothiolase = details: background statement; cited from earlier work
# certain fungal strains = details: background statement; cited from earlier work
# [2] = system: certain bacterial strains; details: background statement; cited from earlier work
# [3] = background statement; cited from earlier work
SMILES,MIC (Candida albicans MY 1055) [µg/mL],IC50 [1] [nM],inhibitor of cytosolic β-ketothiolase (cytosolic β-ketothiolase),active against certain fungal strains (certain fungal strains),active against certain bacterial strains [2],instability of the compound in vivo [3]
"COC(=O)CCCCCC[C@@H]1OC(=O)O[C@H]1C(O)C#CC#CC#C[Si](C)(C)C (single isomer, unassigned) [Ex. 6]",0.6,,,,,
"CC#CC#CC#C[C@@H](OC)[C@@H]1OC(=O)O[C@H]1CCCCCCC(=O)OC [Ex. 13, 5-(1(R)-Methoxy-2,4,6-octatriynyl)-2-oxo-4(S),5(S)-1,3-dioxolane-4-heptanoic acid, methyl ester]",5,560,,,,
"C#CC#CC#CC(O)C1OC(=O)OC1CCCCCCC(=O)O (stereo not shown) [triyne carbonate A, 5-(1-hydroxy-2,4,6-heptatriynyl)-2-oxo-1,3-dioxolane-4-heptanoic acid]",,,potent inhibitor,active,active,relative instability
